Data taken from patent publication US20260055102A1 (Redx Pharma Limited, priority 2022, published 2026).

Key:
[1] = biological target: Recombinant human DDR1 (aa440-876 containing a GST tag) (Homo sapiens (Human), UniProt Q08345); assay: LanthaScreen Eu Kinase Binding Assay DDR1; details: Kinase Tracer 178 5 nM, at least two independent replicates; for IC50: read-out: DDR1 pIC50 (converted)
In short: (§1)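 DDR1 (2.5 nM) or DDR2 (1.75 nM) was preincubated with compound 30 min at RT in 50 mM HEPES pH 7.3, 10 mM MgCl2, 1 mM EGTA, 0.01% Tween. Eu-anti-GST and Tracer 178 were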

[2] = biological target: Recombinant human DDR2 (aa427-855 containing a GST tag) (Homo sapiens (Human), UniProt Q16832); assay: LanthaScreen Eu Kinase Binding Assay DDR2; details: Kinase Tracer 178 10 nM, at least two independent replicates; for IC50: read-out: DDR2 pIC50 (converted)
In short: as §1

Chain of Recombinant human DDR2 (aa427-855 containing a GST tag) (Q16832 427-855): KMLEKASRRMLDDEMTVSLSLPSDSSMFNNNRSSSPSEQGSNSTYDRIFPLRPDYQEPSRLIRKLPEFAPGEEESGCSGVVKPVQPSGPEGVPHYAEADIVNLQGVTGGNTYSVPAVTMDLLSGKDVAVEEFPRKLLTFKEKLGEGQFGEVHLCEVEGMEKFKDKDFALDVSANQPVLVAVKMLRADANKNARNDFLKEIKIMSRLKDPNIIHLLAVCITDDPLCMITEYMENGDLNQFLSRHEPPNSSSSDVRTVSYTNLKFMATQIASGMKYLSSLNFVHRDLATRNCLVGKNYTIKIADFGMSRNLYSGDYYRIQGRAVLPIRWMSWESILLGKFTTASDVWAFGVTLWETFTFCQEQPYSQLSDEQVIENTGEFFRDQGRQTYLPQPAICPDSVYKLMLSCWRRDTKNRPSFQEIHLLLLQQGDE
Chain of Recombinant human DDR1 (aa440-876 containing a GST tag) (Q08345 other isoform, or with tags, fused parts or gaps): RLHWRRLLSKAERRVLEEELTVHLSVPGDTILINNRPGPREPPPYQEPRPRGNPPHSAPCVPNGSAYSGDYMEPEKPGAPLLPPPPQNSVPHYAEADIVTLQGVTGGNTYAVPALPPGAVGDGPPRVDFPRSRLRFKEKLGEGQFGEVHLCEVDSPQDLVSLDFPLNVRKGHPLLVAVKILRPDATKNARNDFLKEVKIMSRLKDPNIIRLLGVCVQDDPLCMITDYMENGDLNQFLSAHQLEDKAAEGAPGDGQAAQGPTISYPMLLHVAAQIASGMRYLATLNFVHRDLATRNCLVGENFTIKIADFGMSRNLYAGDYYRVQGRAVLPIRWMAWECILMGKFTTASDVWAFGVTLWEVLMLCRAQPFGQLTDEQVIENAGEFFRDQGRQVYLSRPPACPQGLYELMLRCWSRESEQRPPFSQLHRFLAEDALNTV

Structure (SMILES) | DDR1 pIC50 [1] | DDR2 pIC50 [2] | IC50 [1] [nM] | IC50 [2] [nM]
COc1cccc2c1n(-c1ccc(-c3cncc4c3cnn4C)cc1)c(=O)n2CC(=O)N[C@@H](C)C(F)(F)F [Example 85, 2-[4-methoxy-3-[4-(1-methylpyrazolo[3,4-c]pyridin-4-yl)phenyl]-2-oxo-benzimidazol-1-yl]-N-[(1S)-2,2,2-trifluoro-1-methyl-ethyl]acetamide] | D (pIC50≤6) | D (pIC50≤6) |  | 
Cc1cccc2c1n(-c1cnc(-c3cncc4c3cnn4C)nc1)c(=O)n2CC(=O)NCC(F)(F)F [Example 75, 2-[4-methyl-3-[2-(1-methylpyrazolo[3,4-c]pyridin-4-yl)pyrimidin-5-yl]-2-oxo-benzimidazol-1-yl]-N-(2,2,2-trifluoroethyl)acetamide] |  |  | 10 to 100 | 100 to 1000
Cc1cc(-c2cncc3c2cnn3C)ccc1-n1c(=O)n(CC(=O)N2CCOC(C(F)(F)F)C2)c2ccccc21 (centres unmarked) [Example 40, 1-[2-methyl-4-(1-methylpyrazolo[3,4-c]pyridin-4-yl)phenyl]-3-[2-oxo-2-[2-(trifluoromethyl)morpholin-4-yl]ethyl]benzimidazol-2-one] |  | D (pIC50≤6) | 10 to 100 | 
Cc1cccc2c1n(-c1ccc(-c3cncc4c3cnn4C)cc1)c(=O)n2CC(=O)N1CCOCC1C(F)(F)F (centres unmarked) [Example 39, 4-methyl-3-[4-(1-methylpyrazolo[3,4-c]pyridin-4-yl)phenyl]-1-[2-oxo-2-[3-(trifluoromethyl)morpholin-4-yl]ethyl]benzimidazol-2-one] | A (pIC50>8) |  |  | 10 to 100
Cn1ncc2c(-c3ccc(-n4c(=O)n(CC(=O)N5CCOCC5)c5ccccc54)cc3)cncc21 [Example 22, 1-[4-(1-methylpyrazolo[3,4-c]pyridin-4-yl)phenyl]-3-(2-morpholino-2-oxoethyl)benzimidazol-2-one] | D (pIC50≤6) | D (pIC50≤6) |  | 
Cc1cccc2c1n(-c1ccc(-c3cncc4c3cnn4C)cc1)c(=O)n2CC(=O)N1CCO[C@H](C(F)(F)F)C1 [Example 42, 4-methyl-3-[4-(1-methylpyrazolo[3,4-c]pyridin-4-yl)phenyl]-1-[2-oxo-2-[(2S)-2-(trifluoromethyl)morpholin-4-yl]ethyl]benzimidazol-2-one] | A (pIC50>8) |  |  | 10 to 100
Cn1ncc2c(-c3ccc(-n4c(=O)n(CC(=O)N5CC(C(F)(F)F)C5)c5ccccc54)cc3)cncc21 [Example 34, 1-[4-(1-methylpyrazolo[3,4-c]pyridin-4-yl)phenyl]-3-[2-oxo-2-[3-(trifluoromethyl)azetidin-1-yl]ethyl]benzimidazol-2-one] |  | D (pIC50≤6) | 100 to 1000 | 
Cc1cccc2c1n(-c1ccc(-c3cncc4[nH]ncc34)nc1)c(=O)n2CC(=O)N[C@@H](C)C(F)(F)F [Example 68, 2-[4-methyl-2-oxo-3-[6-(1H-pyrazolo[3,4-c]pyridin-4-yl)-3-pyridyl]benzimidazol-1-yl]-N-[(1S)-2,2,2-trifluoro-1-methyl-ethyl]acetamide] | A (pIC50>8) |  |  | 10 to 100
Cn1ncc2c(-c3ccc(-n4c(=O)n(CC(=O)N5CCCCC5C(F)(F)F)c5ccccc54)cc3)cncc21 (centres unmarked) [Example 20, 1-[4-(1-methylpyrazolo[3,4-c]pyridin-4-yl)phenyl]-3-[2-oxo-2-[2-(trifluoromethyl)-1-piperidyl]ethyl]benzimidazol-2-one] | A (pIC50>8) |  |  | 100 to 1000
Cc1cc(-c2cncc3c2cnn3C)ccc1-n1c(=O)n(CC(=O)N[C@@H](C)C(F)(F)F)c2cccc(C)c21 [Example 82, 2-[4-methyl-3-[2-methyl-4-(1-methylpyrazolo[3,4-c]pyridin-4-yl)phenyl]-2-oxo-benzimidazol-1-yl]-N-[(1S)-2,2,2-trifluoro-1-methyl-ethyl]acetamide] | A (pIC50>8) |  |  | 10 to 100
Cc1nc(-c2cncc3c2cnn3C)ccc1-n1c(=O)n(CC(=O)NCC(F)(F)F)c2cccc(C)c21 [Example 95, 2-[4-methyl-3-[2-methyl-6-(1-methylpyrazolo[3,4-c]pyridin-4-yl)-3-pyridyl]-2-oxo-benzimidazol-1-yl]-N-(2,2,2-trifluoroethyl)acetamide] | A (pIC50>8) |  |  | 100 to 1000
Cc1cccc2c1n(-c1ncc(-c3cncc4c3cnn4C)cn1)c(=O)n2CC(=O)NCC(F)(F)F [Example 66, 2-[4-methyl-3-[5-(1-methylpyrazolo[3,4-c]pyridin-4-yl)pyrimidin-2-yl]-2-oxo-benzimidazol-1-yl]-N-(2,2,2-trifluoroethyl)acetamide] |  | D (pIC50≤6) | 10 to 100 | 
Cc1cccc2c1n(-c1ncc(-c3cncc4[nH]ncc34)cn1)c(=O)n2CC(=O)N[C@@H](C)C(F)(F)F [Example 73, 2-[4-methyl-2-oxo-3-[5-(1H-pyrazolo[3,4-c]pyridin-4-yl)pyrimidin-2-yl]benzimidazol-1-yl]-N-[(1S)-2,2,2-trifluoro-1-methyl-ethyl]acetamide] | A (pIC50>8) |  |  | 100 to 1000
C[C@@H](CC(F)(F)F)NC(=O)Cn1c(=O)n(-c2ccc(-c3cncc4c3cnn4C)cc2)c2ccccc21 [Example 62, 2-[3-[4-(1-methylpyrazolo[3,4-c]pyridin-4-yl)phenyl]-2-oxo-benzimidazol-1-yl]-N-[(1S)-3,3,3-trifluoro-1-methyl-propyl]acetamide] | A (pIC50>8) |  |  | 100 to 1000
Cc1cccc2c1n(-c1ccc(-c3cncc4c3cnn4C)nc1)c(=O)n2CC(=O)N1CCOC[C@H]1C(F)(F)F [Example 53, 4-methyl-3-[6-(1-methylpyrazolo[3,4-c]pyridin-4-yl)-3-pyridyl]-1-[2-oxo-2-[(3S)-3-(trifluoromethyl)morpholin-4-yl]ethyl]benzimidazol-2-one] | A (pIC50>8) |  |  | 10 to 100
Cc1nc(-n2c(=O)n(CC(=O)N[C@@H](C)C(F)(F)F)c3cccc(C)c32)cnc1-c1cncc2c1cnn2C [Example 101, 2-[4-methyl-3-[6-methyl-5-(1-methylpyrazolo[3,4-c]pyridin-4-yl)pyrazin-2-yl]-2-oxo-benzimidazol-1-yl]-N-[(1S)-2,2,2-trifluoro-1-methyl-ethyl]acetamide] |  | D (pIC50≤6) | 100 to 1000 | 
Cn1ncc2c(-c3ccc(-n4c(=O)n(CC(=O)N5CCCC5C(F)(F)F)c5ccccc54)cc3)cncc21 (centres unmarked) [Example 18, 1-[4-(1-methylpyrazolo[3,4-c]pyridin-4-yl)phenyl]-3-[2-oxo-2-[2-(trifluoromethyl)pyrolidin-1-yl]ethyl]benzimidazol-2-one] | A (pIC50>8) |  |  | 10 to 100
Cn1ncc2c(-c3ccc(-n4c(=O)n(CC(=O)N5CCOC(C(F)(F)F)C5)c5ccccc54)cc3)cncc21 (centres unmarked) [Example 24, 1-[4-(1-methylpyrazolo[3,4-c]pyridin-4-yl)phenyl]-3-[2-oxo-2-[2-(trifluoromethyl)morpholin-4-yl]ethyl]benzimidazol-2-one] | A (pIC50>8) | D (pIC50≤6) |  | 
Cc1cc(-n2c(=O)n(CC(=O)NCC(F)(F)F)c3cccc(C)c32)cnc1-c1cncc2[nH]nc(C)c12 [Example 102, 2-[4-methyl-3-[5-methyl-6-(3-methyl-1H-pyrazolo[3,4-c]pyridin-4-yl)-3-pyridyl]-2-oxo-benzimidazol-1-yl]-N-(2,2,2-trifluoroethyl)acetamide] |  | D (pIC50≤6) | 100 to 1000 | 
Cc1cc(-c2cncc3c2cnn3C)cc(C)c1-n1c(=O)n(CC(=O)NCC(F)(F)F)c2ccccc21 [Example 90, 2-[3-[2,6-dimethyl-4-(1-methylpyrazolo[3,4-c]pyridin-4-yl)phenyl]-2-oxo-benzimidazol-1-yl]-N-(2,2,2-trifluoroethyl)acetamide] |  | D (pIC50≤6) | 100 to 1000 | 
Cn1ncc2c(-c3ccc(-n4c(=O)n(CC(=O)NCC(F)(F)F)c5ccccc54)cc3F)cncc21 [Example 4, 2-[3-[3-fluoro-4-(1-methylpyrazolo[3,4-c]pyridin-4-yl)phenyl]-2-oxobenzimidazol-1-yl]-N-(2,2,2-trifluoroethyl)acetamide] |  | D (pIC50≤6) | 10 to 100 | 
COc1cccc2c1n(-c1ccc(-c3cncc4c3cnn4C)cc1C)c(=O)n2CC(=O)NCC(F)(F)F [Example 81, 2-[4-methoxy-3-[2-methyl-4-(1-methylpyrazolo[3,4-c]pyridin-4-yl)phenyl]-2-oxo-benzimidazol-1-yl]-N-(2,2,2-trifluoroethyl)acetamide] | D (pIC50≤6) | D (pIC50≤6) |  | 
Cc1nc(-c2cncc3c2cnn3C)cnc1-n1c(=O)n(CC(=O)NCC(F)(F)F)c2cccc(C)c21 [Example 96, 2-[4-methyl-3-[3-methyl-5-(1-methylpyrazolo[3,4-c]pyridin-4-yl)pyrazin-2-yl]-2-oxo-benzimidazol-1-yl]-N-(2,2,2-trifluoroethyl)acetamide] | A (pIC50>8) |  |  | 100 to 1000
Cc1cccc2c1n(-c1ccc(-c3cncc4[nH]ncc34)cn1)c(=O)n2CC(=O)NCC(F)(F)F [Example 72, 2-[4-methyl-2-oxo-3-[5-(1H-pyrazolo[3,4-c]pyridin-4-yl)-2-pyridyl]benzimidazol-1-yl]-N-(2,2,2-trifluoroethyl)acetamide] | A (pIC50>8) |  |  | 100 to 1000
Cc1cccc2c1n(-c1ccc(-c3cncc4c3cnn4C)cn1)c(=O)n2CC(=O)N[C@@H](C)C(F)(F)F [Example 64, 2-[4-methyl-3-[5-(1-methylpyrazolo[3,4-c]pyridin-4-yl)-2-pyridyl]-2-oxo-benzimidazol-1-yl]-N-[(1S)-2,2,2-trifluoro-1-methyl-ethyl]acetamide] | B (8≥pIC50>7) | D (pIC50≤6) |  | 
